Measured values reported in patent publication US20250002461A1, “DEUTERATED (TRIFLUOROMETHYL)PYRIMIDINE-2-AMINE COMPOUNDS AS POTENTIATORS OF THE HMRGX1 RECEPTOR” (Eli Lilly and Company, priority 2021, published 2025).
Like-named read-outs stand apart in the source and are kept apart here.

Columns and labels:
[1] = Intrinsic clearance in mouse cryopreserved hepatocytes; format: in vitro ADME; conditions: 0.3 μM substrate, 37° C.
Experimental: (§1) In Vitro Determination of Intrinsic Clearance in Mice and Human Hepatocytes
(§2) Cryopreserved hepatocytes are used to determine the in vitro metabolic clearance of pharmaceutical candidates. The following assay was conducted to compare the compound of Example 1 to its undeuterated analog, referred to hereinafter as Compound A:
(§3) Compound incubations (0.3 μM substrate concentrations) were then performed in a 96-well plate format at 37° C. with 200,000 cells/well, shaking at approximately 600 rpm. Incubations were initiated by direct addition of 2 μL of the substrate compounds. At 0, 15, 30, 60, and 90 minutes, 20 μL of incubation samples were quenched with 80 μL acetonitrile containing internal standard. Quenched plates were foil sealed, centrifuged for 30 minutes at 4000 rpm and analyzed for substrate by liquid chromatography with tandem mass spectrometry (LC-MS/MS).
(§4) Intrinsic clearance is a measure of the maximum potential liver metabolism of a compound when not restricted by blood flow or protein binding This intrinsic clearance was determined from the elimination rate constants (kdep; min^−1) measured from the disappearance of substrate in the incubations over time, using the following equation: […]

[2] = Intrinsic clearance in human cryopreserved hepatocytes; format: in vitro ADME; conditions: 0.3 μM substrate, 37° C.
Experimental: as §1, §2, §3, §4

[3] = Determination of pharmacokinetics in mice; format: in vivo, mouse; conditions: male CD-1 mice; for CLIV / Vd: IV 1 mg/kg; for Vd / bioavailability: mouse, whole blood (dried blood spot); for Vd: read-out: Vd, ss; for bioavailability: PO 10 mg/kg vs IV 1 mg/kg
Experimental: Determination of Pharmacokinetics in Mice
Subjects: The subjects for these studies were male CD-1 mice from either Envigo, (Indianapolis, IN, USA) or Charles River Laboratories, Inc (Raleigh, NC, USA) between 4-12 weeks old at time of test. Each dosing group has three animals, and food and water is available ad libitum.
Dosing and Sample Collection: The test compound was administered intravenously (IV) via tail vein at 1 mg/kg (using vehicle: 25% (v/v) Dimethylacetamide (DMA), 15% (v/v) Ethanol (EtOH), 10% (v/v) Propylene Glycol (PG), 25% 2-Pyrrolidone (2-P), and 25% purified water) and orally (PO) via gavage needle at 10 mg/kg (using a vehicle of 1% (w/v) Hydroxyethylcellulose, 0.25% (w/v) Polysorbate 80, 0.05% (v/v) Antifoam1510-US in purified water quantum satis. Blood for dried blood spot (DBS) collection (approximately 20 μL) was collected from each available animal via a saphenous vein utilizing K2EDTA capillary tubes and stored at ambient temperature until analysis. Serial blood samples are collected at 0.08, 0.25, 0.5, 1, 2, 4, 8, 12, 24, and 48 h post dose for IV bolus and at 0.25, 0.5, 1, 2, 4, 8, 12, 24, and 48 h post dose after oral administration.
Sample Analysis: DBS cards (3 mm punches) of samples or standards were each mixed with a 180 uL solution of methanol: acetonitrile (1/1, v/v) containing internal standard to extract analyte followed by a two-fold dilution with water. A 10 uL aliquot of sample or standard is analyzed using an LC-MS/MS method. For Compound A, the lower limit of quantification (LLQ) was 5 ng/ml and the upper limit of quantification (ULQ) was 2500 ng/mL. For the compound of Example 1, the LLQ was 10 ng/ml and ULQ was 10,000 ng/mL
Calculation of pharmacokinetic parameters: Test article concentration data was uploaded into the Thermo Scientific™ Watson LIMS™ system where noncompartmental analysis was used to calculate Area Under the Curve (AUC) for both IV and PO arms, and Mean Residence Time (MRT) from the IV arm. • Bioavailability (% F) was calculated as follows,
[formula] • IV Clearance (CLIV) was calculated as follows,
[formula] • Volume of distribution at steady state (Vd,ss) was calculated as follows, […]

human MrgX1 receptor = biological target: T1, human MrgX1 receptor (Homo sapiens, UniProt Q96LB2); test: IP1 cellular assay for EC50 determination against hMrgX1 by HTRF; format: cell-based; conditions: for EC50: HEK293 cells expressing human MrgX1, in presence of EC15 of BAM8-22, geometric mean (SEM, n), read-out: Relative EC50 (SEM, n); for Max (Mean ± SEM): maximum stimulation relative to saturating BAM8-22
T1 construct: expressed in transfected cells
T1 sequence (Q96LB2 whole entry): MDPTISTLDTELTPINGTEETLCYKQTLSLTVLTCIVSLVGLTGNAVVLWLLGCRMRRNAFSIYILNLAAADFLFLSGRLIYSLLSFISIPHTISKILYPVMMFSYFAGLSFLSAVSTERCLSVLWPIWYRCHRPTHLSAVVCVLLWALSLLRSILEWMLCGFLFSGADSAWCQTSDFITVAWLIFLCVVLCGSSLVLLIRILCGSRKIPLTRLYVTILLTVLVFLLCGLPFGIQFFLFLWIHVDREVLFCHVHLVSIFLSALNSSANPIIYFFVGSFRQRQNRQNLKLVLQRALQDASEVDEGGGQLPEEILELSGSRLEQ
Experimental: IP1 Cellular Assay for EC50 Determination Against hMrgX1 by HTRF
Cell plating: HEK293 cells stably expressing the recombinant human MrgX1 receptor were expanded in culture flasks (Corning, T150), using growth media containing DMEM with glutamine (GIBCO™ Cat. #11960-044) supplemented with 10% heat-inactivated FBS (HyClone™, Cat. #CH30073), 1% penicillin/streptomycin (HyClone™, Cat. #SV30010; 10,000 U/mL penicillin; 10,000 μg/mL streptomycin in 0.85% NaCl), 20 mM HEPES (GIBCO™, Cat. #15630122) and 0.3 mg/mL G418 (GIBCO™ Cat. #11811031). When cell monolayers achieved a level of 80-90% confluence, monolayers were washed once with 10 mL of DPBS (HyClone™, Cat. #14190-144), dissociated using TrypLE™ Express enzyme cell dissociation media (GIBCO™ Cat. #12605-010), and were diluted by addition of 10 mL DPBS. Dissociated cells were transferred to a sterile 50 mL conical tube, pelleted by centrifugation at 300×g to remove the growth and dissociation media, and diluted to 1M cells/mL into DMEM for plating.
IP1 Potency and Efficacy Determination: Test compounds were dissolved in DMSO to a concentration of 10 mM and serially diluted in DMSO to obtain a 10-point concentration response stock dilution plate. Growth media was removed from the cell plate, and the stock 10-point dilution plate was diluted into media and stamped into the cell plate at a concentration 2× higher than the final test concentration of […] maximum. The endogenous agonist BAM8-22 (Tocris-BioScience Cat. #1763) was diluted to the EC15, determined independently at a minimum of n=3, into the cell plate and incubated at room temperature for 120 min. Subsequently, half the volume each of anti-IP1 cryptate and d2-labeled IP1 in lysis buffer, supplied with the IP-One Gq Kit (CisBio Cat. #62IPAPEC) was added to the cell plate to initiate cell lysis, and incubated for 60 min at room temperature in the dark. Fluorescence was then determined at 620 and 665 nm (˜100 us following laser excitation).
Data Analysis: Fluorescent ratios were determined as the ratio of the fluorescence emission at 665 nm over 620 nm and converted to IP1 concentration, using the IP1 standard curve generated in a separate plate, following the manufacturer's instructions. The IP1 concentration was then plotted as a function of compound concentration. […]

[4] = In vivo determination of Kp,uu,brain in mice; conditions: male, CD1 (ICR), mouse, 100 mg/kg oral
Excerpt: In Vivo Determination of Kp,uu,Brain in Mice
Unbound brain-to-plasma partition coefficient (Kp,uu,brain) is one of the key pharmacokinetic parameters for evaluating a compound's ability to cross the blood-brain barrier (BBB). It is typically measured in pre-clinical species using the following methodology. Kp,uu,brain values indicate the fraction of free drug in plasma that partitions across the BBB.
Subjects: The subjects for these studies were 12 male CD1 (ICR) mice (Envigo, Indianapolis, IN, USA) between 5-7 weeks old at time of test. Mice were housed in groups of 4 in high density plastic home cages. Food and water were available ad libitum. The rooms were maintained at 73° F. with 30-70% relative humidity and kept on a light/dark cycle of 0600-1800 h.
Agent: The compound of Example 1 was prepared at 10 mg/ml in the 1% HEC, 0.25% TWEEN®80, 0.05% DOWSIL™ vehicle in water. Prepared compound was sonicated in water bath for 30 min until a suspension was formed. Mice were dosed orally at 10 ml/kg for a 100 mg/kg dose.
Dosing and Tissue Collection: For this experiment, ten mice received oral dosing of 100 mg/kg of the compound of Example 1. Mice were then euthanized at 2 h post-dosing via CO2 asphyxiation, plasma samples were collected via cardia puncture, and mouse brains removed, weighed, and frozen on dry ice. Blood samples were stored in EDTA tubes on wet ice and centrifuged at 15 k rpm for 10 min. Plasma was collected, plated in a 96-well plate, and frozen at −80° C.
Pharmacokinetic sampling: Plasma and brain samples obtained were analyzed for Example 1 using an LC-MS/MS method (Q2 Solutions, Indianapolis, IN, USA). Plasma samples were extracted using protein precipitation. The lower limit of quantification was 25 ng/mL, and the upper limit of quantification was 5000 ng/mL. Brain samples were homogenized, and the analyte was extracted using protein precipitation. The lower limit of quantification was 4 ng/g and the upper limit of quantification was 200000 ng/g.
Analysis and Results: Kp,uu,brain was calculated for each time point from the expression below where individual components are derived from a combination of in vitro and in vivo measurements carried out as described above:
where Ctotal,brain, Cu,brain, Ctotal,plasma, and Cu,plasma are total and unbound brain and plasma concentrations, and fu,brain and fu,plasma are fractions unbound in brain and plasma, respectively.

[5] = Plasma and brain homogenate protein binding by equilibrium dialysis; format: in vitro ADME, mouse
Experimental: Determination of plasma and brain protein binding: Mouse plasma and brain homogenate protein binding was determined in vitro using equilibrium dialysis, as described elsewhere [Zamek-Gliszczynski et al., J Pharm Sci, 101:1932-1940, 2012]. The results are reported as fraction unbound in plasma (fu,plasma) and brain (fu,brain) which are then utilized to calculate Kp,uu,brain as described below. Mouse fu,plasma and fu,brain of Example 1 was determined to be 0.0667 and 0.011, respectively.

hepatocyte CLint at 0.3 μM [1] [µL/min/1e6 cells]	hepatocyte CLint at 0.3 μM [2] [µL/min/1e6 cells]	CLIV [3] [mL/min/kg]	Vd [3] [L/kg]	bioavailability [3] [%]	EC50 (human MrgX1 receptor) [nM]	Max (Mean ± SEM) (human MrgX1 receptor)	concentration at 2 h ([4]; brain (unbound), 2 h, using mouse fu,brain 0.011, read-out: Unbound brain conc. (Cu, brain) ± SD) [µM]	concentration at 2 h ([4]; brain, 2 h post dose, read-out: Total brain conc. (Ctotal, brain) ± SD) [µM]	concentration at 2 h ([4]; plasma (unbound), 2 h, using mouse fu,plasma 0.0667, read-out: Unbound plasma conc. (Cu, plasma) ± SD) [µM]	concentration at 2 h ([4]; plasma, 2 h post dose, read-out: Total plasma conc. (Ctotal, plasma) ± SD) [µM]	Kp uu at 2 h ([4]; 2 h, unbound brain-to-plasma partition coefficient)	fraction unbound ([5]; mouse brain homogenate, read-out: fraction unbound in brain (fu,brain))	fraction unbound ([5]; mouse plasma, read-out: fraction unbound in plasma (fu,plasma))	SMILES
< 1.8	2.62	16.1 ± 1.7	6.6 ± 0.1	34 ± 3.7	–	–	–	–	–	–	–	–	–	Cc1c(Oc2c(F)cc(C#N)cc2F)nc(N)nc1C(F)(F)F [Compound A, reference compound]
< 1.8	6.47	7.7 ± 1.3	9.5 ± 3.1	60 ± 2.6	22	111 ± 14.9, n = 4%	0.706 ± 0.25	64.1 ± 22.7	1.25 ± 0.418	18.8 ± 6.26	0.586	0.011	0.0667	[2H]C([2H])([2H])c1c(Oc2c(F)cc(C#N)cc2F)nc(N)nc1C(F)(F)F [Example 1, 4-[2-amino-5-(trideuteriomethyl)-6-(trifluoromethyl)pyrimidin-4-yl]oxy-3,5-difluoro-benzonitrile]
–	–	–	–	–	28	106 ± 8.16, n = 4%	–	–	–	–	–	–	–	[2H]C([2H])([2H])c1c(Oc2c(F)cccc2F)nc(N)nc1C(F)(F)F [Example 2, 4-(2,6-difluorophenoxy)-5-(trideuteriomethyl)-6-(trifluoromethyl)pyrimidin-2-amine]
